Results on 1 compound are retold here after article PMC4284639, “The Escherichia coli effector EspJ blocks Src kinase activity via amidation and ADP ribosylation” (Nature Communications, 2014).

In this assay the target is T1, EspJ28-217 (Escherichia coli, UniProt B7ULW8).
T1 construct: gene E2348C_0723; residues 28-217, lacking N-terminal secretion signal; 15N-labelled for NMR
The experiment in a line: 1H-15N HSQC NMR titration. Particulars: 0.25 mM 15N-labelled protein, 1 or 10 molar equivalents of NAD+; 50 mM NaPO4 pH 7.4, 200 mM NaCl, 5 mM beta-mercaptoethanol, 10% D2O, 295 K; also ADP-ribose donor with GST-Src (150 uM NAD+ and labelle). It is filed as binding.

Each structure is given as a SMILES string.

T1 sequence (B7ULW8 entry or part of it): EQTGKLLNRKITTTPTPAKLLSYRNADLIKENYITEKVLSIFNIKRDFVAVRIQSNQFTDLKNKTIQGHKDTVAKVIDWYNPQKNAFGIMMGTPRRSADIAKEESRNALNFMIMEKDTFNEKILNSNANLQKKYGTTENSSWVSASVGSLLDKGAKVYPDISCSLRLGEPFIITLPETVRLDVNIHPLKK

As to `NC(=O)c1ccc[n+]([C@@H]2O[C@H](COP(=O)(O)OP(=O)(O)OC[C@H]3O[C@@H](n4cnc5c(N)ncnc54)[C@H](O)[C@@H]3O)[C@@H](O)[C@H]2O)c1` [NAD^+], the chemical shift perturbation result was “The addition of NAD^+ caused substantial chemical shift perturbations for several resonances”.
